Results reported in patent publication US11672786B2, “Methods of treating diseases associated with repeat instability” (The Hospital for Sick Children, priority 2016, dated 2023).
“And” between values parts separate entries of the source, which are not always exact repeats. Equal entries are not always repeated.

Tested on: HD fibroblasts (CAG)180
Experiment: small-pool PCR across HD repeat tract, HD primary fibroblasts GM09197
Type: cell-based, human
Settings: 50 uM NA, 40 days
Experimental: The construction of the HT1080-(CAG)850 cell model was described previously (Sathasivam et al., 1997, Hum. Genet., 99:692-5). Briefly, HT1080 (ATCC) human fibrosarcoma cells were co-transfected with a plasmid (LC15-R) containing 800-850 (CTG)●(CAG) repeats (Nakatani et al., 2005, Nat. Chem. Biol., 1:39-43) and a plasmid encoding PhiC31 integrase. Transfection was performed with a Nucleofector (Lonza, Basel, Switzerland), and stably transfected clones were selected with puromycin. […] The HT1080-non-transcribing (CAG)850 cell model was established by transfecting a plasmid modified from pLC16 by inserting an additional SV40 polyadenylation signal downstream of the repeats (in addition to the original polyadenylation signals located upstream of the repeats), so that CAG/CTG repeats are floxed by transcription-terminator elements. The AttB-PhiC31 system has been widely used for single copy integration. […] The HT1080 model cells and an HD primary fibroblast cell line, GM09197 (Coriell Biorepository) with a large expanded allele of 180 CAG repeats and a non-expanded allele of 23 repeats (Sathasivam et al., 1997, Hum. Genet., 99:[…]), the HD primary fibroblast cell line, GM02191 (Coreill Biorepository) with an expanded allele of 43 CAG repeats and a non-expanded allele of 19 repeats, were cultured at 37° C. with 5% CO2 in Dulbecco's modified Eagle's medium supplemented with 10% fetal bovine serum and 1% penicillin/streptomycin. Cells were treated with or without continuous exposure to 50-μM NA for 30 days (HT1080 cells) or for 40 days (fibroblast cells). For experiments on non-proliferating cells, HT1080 cells were grown to confluence and then treated for the same period. WST-1 assay was performed according to the manufacturer's instructions (Roche, Basel, Switzerland). All cell lines were tested to be free of Mycoplasma. Three biological replicates were performed for each experiment.
Genomic DNA was extracted from HT1080-(CAG)850 clones and HD primary fibroblasts using the Gentra Puregene Cell Kit (Qiagen, Valencia, Calif.). The expanded (CTG)●(CAG) repeats were sized by small-pool PCR (sp-PCR) followed by Southern blot as described previously (Sathasivam et al., 1997, Hum. Genet., 99:692-5). For HT1080 models, small-pool PCR (spPCR) was performed with the input of 1.4-1.7 genome equivalents. The repeat size difference in the models is, at most, 3000 base-pairs, therefore, being strictly conservative, a bias toward amplifying the shorter allele can be possible, even under optimized PCR conditions described herein. For HD primary fibroblasts, sp-PCR & Southern blots were performed as described previously with slight modifications (Tome et al., 2013, PLoS Genet., 9:e1003280). Briefly, the PCR primers listed in Table 1 were used, and blots were hybridized with a DIG-labeled (CAG)7 locked nucleic acid probe (Nakamori et al. 2009, Neuromuscul. Disord., 19:759-62). At least 50 alleles were analyzed for each of the three experiments (more than 150 alleles for a total study). Repeat analyses are summarized in Table 2, compiled from complete small-pool-PCR datasets for each repetition of each experiment. For the histograms in FIGS. 4D, 4E, 10, 11, 5B, 5D, 5E, 14 and 15B, the Y-axis, “% of repeat population” was calculated by determining the proportion of >50 individual small-pool PCR reactions across the CAG repeat tract, that harbored a certain size of repeat product with a certain length. Cell clones were grown 30 or 40 days with or without NA (see, for example, Sathasivam et al., 1997, Hum. Genet., 99:692-5). Specifically, the histograms of repeat length distributions were from at least two different cell clones. Length distributions were determined as follows: Small-pool PCR followed by Southern blot for analysis of CAG/CTG repeat length.

[1] = single experiments Ex 1-3, cut-off ±10 repeats

## naphthyridine-azaquinolone
Total
  % Contraction: 31.2%
  % Expansion: 13.6%
  % Unchanged: 55.2%
  Average repeat size: 177.5 number of repeats
Single experiments Ex 1-3
  % Unchanged: 58.6% and 56.1% and 50.9%
  Average repeat size: 178.5 number of repeats and 176.5 number of repeats and 177.5 number of repeats
[1]
  % Contraction: 28.8% and 30.8% and 34.0%
  % Expansion: 12.6% and 13.1% and 15.1%
